Measured values reported in ChEMBL document CHEMBL1201862, “PubChem BioAssay data set” (2004).
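A five-concentration, 48-hour dose response in 96-well plates underlies each endpoint, interpolated linearly between surrounding concentrations. Here, GI50 denotes the concentration required for 50% inhibition of growth.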 The source made the active and inactive calls. No stated cut-off is given here; in the data, active = GI50 up to about 1.1 µM and inactive = higher.

Assays:
Assay in all cases: inhibition of tumour cell growth, NCI panel, 48 h
Hs-578T = system: Hs-578T
M14 = system: M14
HT-29 = system: HT-29
NCI-H23 = system: NCI-H23
U-251 = system: U-251
UACC-62 = system: UACC-62
K562 = system: K562
COLO 205 = system: COLO 205
ACHN = system: ACHN
UO-31 = system: UO-31
NCI-H226 = system: NCI-H226
OVCAR-3 = system: OVCAR-3
OVCAR-4 = system: OVCAR-4
A498 = system: A498
NCI-H460 = system: NCI-H460
SN12C = system: SN12C
A549 = system: A549
SNB-19 = system: SNB-19
SK-MEL-2 = system: SK-MEL-2
UACC-257 = system: UACC-257
NCI/ADR-RES = system: NCI/ADR-RES
IGROV-1 = system: IGROV-1
MCF7 = system: MCF7
RPMI-8226 = system: RPMI-8226
OVCAR-8 = system: OVCAR-8
HCT-116 = system: HCT-116
SK-OV-3 = system: SK-OV-3
EKVX = system: EKVX
HL-60 = system: HL-60
T47D = system: T47D
LOX IMVI = system: LOX IMVI
NCI-H522 = system: NCI-H522
RXF 393 = system: RXF 393
HOP-62 = system: HOP-62
SW-620 = system: SW-620
SF-268 = system: SF-268
MDA-MB-231 = system: MDA-MB-231
OVCAR-5 = system: OVCAR-5
SK-MEL-28 = system: SK-MEL-28
SK-MEL-5 = system: SK-MEL-5
SF-295 = system: SF-295
SF-539 = system: SF-539
SR = system: SR
DU-145 = system: DU-145
SNB-75 = system: SNB-75
CAKI-1 = system: CAKI-1
PC-3 = system: PC-3
MDA-N = system: MDA-N
HCT-15 = system: HCT-15
CCRF-CEM = system: CCRF-CEM
Malme-3M = system: Malme-3M
HOP-92 = system: HOP-92
786-0 = system: 786-0
KM12 = system: KM12
MOLT-4 = system: MOLT-4
HCC 2998 = system: HCC 2998
MDA-MB-435 = system: MDA-MB-435
TK-10 = system: TK-10
BT-549 = system: BT-549

Q: For CCC12C=CCN3CCC4(c5cc(C(c6ccc(OC)cc6)C6Cc7ccccc7N6)c(OC)cc5N(C)C4C(O)(C(=O)OC)C1O)C32 (stereo not drawn), which GI50 (Hs-578T) is on record?
A: 63700 nM (inactive)

Q: And the GI50 (M14)?
A: 24200 nM (inactive)

Q: And the GI50 (HT-29)?
A: 18200 nM (inactive)

Q: What about the GI50 (NCI-H23) of the same compound?
A: 27000 nM (inactive)

Q: And the GI50 (U-251)?
A: 11000 nM (inactive)

Q: And the GI50 (UACC-62)?
A: 11800 nM (inactive)

Q: And the GI50 (K562)?
A: 3420 nM (inactive)

Q: What about the GI50 (COLO 205) of the same compound?
A: 8360 nM (inactive)

Q: And the GI50 (ACHN)?
A: 19200 nM (inactive)

Q: What about the GI50 (UO-31) of the same compound?
A: 10200 nM (inactive)

Q: And the GI50 (NCI-H226)?
A: 32700 nM (inactive)

Q: And the GI50 (OVCAR-3)?
A: 19200 nM (inactive)

Q: What about the GI50 (OVCAR-4) of the same compound?
A: 9330 nM (inactive)

Q: What about the GI50 (A498) of the same compound?
A: 11600 nM (inactive)

Q: What about the GI50 (NCI-H460) of the same compound?
A: 17600 nM (inactive)

Q: And the GI50 (SN12C)?
A: 37400 nM (inactive)

Q: And the GI50 (A549)?
A: 20400 nM (inactive)

Q: And the GI50 (SNB-19)?
A: 17900 nM (inactive)

Q: And the GI50 (SK-MEL-2)?
A: 15300 nM (inactive)

Q: What about the GI50 (UACC-257) of the same compound?
A: 20500 nM (inactive)

Q: What about the GI50 (NCI/ADR-RES) of the same compound?
A: 26100 nM (inactive)

Q: What about the GI50 (IGROV-1) of the same compound?
A: 16900 nM (inactive)

Q: What about the GI50 (MCF7) of the same compound?
A: 5190 nM (inactive)

Q: What about the GI50 (RPMI-8226) of the same compound?
A: 1830 nM (inactive)

Q: And the GI50 (OVCAR-8)?
A: 15100 nM (inactive)

Q: What about the GI50 (HCT-116) of the same compound?
A: 14400 nM (inactive)

Q: And the GI50 (SK-OV-3)?
A: 29400 nM (inactive)

Q: What about the GI50 (EKVX) of the same compound?
A: 36100 nM (inactive)

Q: And the GI50 (HL-60)?
A: 1720 nM (inactive)

Q: And the GI50 (T47D)?
A: 2900 nM (inactive)

Q: What about the GI50 (LOX IMVI) of the same compound?
A: 14100 nM (inactive)

Q: What about the GI50 (NCI-H522) of the same compound?
A: 16400 nM (inactive)

Q: What about the GI50 (RXF 393) of the same compound?
A: 14300 nM (inactive)

Q: And the GI50 (HOP-62)?
A: 26500 nM (inactive)

Q: And the GI50 (SW-620)?
A: 21500 nM (inactive)

Q: And the GI50 (SF-268)?
A: 44600 nM (inactive)

Q: And the GI50 (MDA-MB-231)?
A: 16100 nM (inactive)

Q: What about the GI50 (OVCAR-5) of the same compound?
A: 36700 nM (inactive)

Q: And the GI50 (SK-MEL-28)?
A: 30200 nM (inactive)

Q: And the GI50 (SK-MEL-5)?
A: 12100 nM (inactive)

Q: And the GI50 (SF-295)?
A: 18300 nM (inactive)

Q: And the GI50 (SF-539)?
A: 21000 nM (inactive)

Q: What about the GI50 (SR) of the same compound?
A: 8040 nM (inactive)

Q: And the GI50 (DU-145)?
A: 29000 nM (inactive)

Q: What about the GI50 (SNB-75) of the same compound?
A: 3660 nM (inactive)

Q: What about the GI50 (CAKI-1) of the same compound?
A: 18700 nM (inactive)

Q: And the GI50 (PC-3)?
A: 12600 nM (inactive)

Q: What about the GI50 (MDA-N) of the same compound?
A: 18800 nM (inactive)

Q: What about the GI50 (HCT-15) of the same compound?
A: 22000 nM

Q: And the GI50 (CCRF-CEM)?
A: 3670 nM (inactive)

Q: And the GI50 (Malme-3M)?
A: 36600 nM (inactive)

Q: What about the GI50 (HOP-92) of the same compound?
A: 2810 nM (inactive)

Q: And the GI50 (786-0)?
A: 18700 nM (inactive)

Q: And the GI50 (KM12)?
A: 5890 nM (inactive)

Q: What about the GI50 (MOLT-4) of the same compound?
A: 2260 nM (inactive)

Q: What about the GI50 (HCC 2998) of the same compound?
A: 20000 nM (inactive)

Q: And the GI50 (MDA-MB-435)?
A: 12700 nM (inactive)

Q: What about the GI50 (TK-10) of the same compound?
A: 22900 nM (inactive)

Q: What about the GI50 (BT-549) of the same compound?
A: 19900 nM (inactive)

Q: CC(=O)OC1C(C)OC(OC2C[C@](O)(C(C)=O)Cc3c(O)c4c(c(O)c32)C(=O)c2ccccc2C4=O)C(F)C1OC(C)=O (stereo partly drawn) was tested. Which GI50 (Hs-578T) did it give?
A: 476 nM (active)

Q: What about the GI50 (M14) of the same compound?
A: 735 nM (active)

Q: What about the GI50 (HT-29) of the same compound?
A: 1420 nM (inactive)

Q: And the GI50 (NCI-H23)?
A: 245 nM (active)

Q: What about the GI50 (U-251) of the same compound?
A: 238 nM (active)

Q: What about the GI50 (UACC-62) of the same compound?
A: 387 nM (active)

Q: And the GI50 (K562)?
A: 1630 nM (inactive)

Q: What about the GI50 (COLO 205) of the same compound?
A: 1980 nM (inactive)

Q: And the GI50 (ACHN)?
A: 114 nM (active)

Q: What about the GI50 (UO-31) of the same compound?
A: 115 nM (active)

Q: And the GI50 (NCI-H226)?
A: 335 nM (active)

Q: And the GI50 (OVCAR-3)?
A: 2520 nM (inactive)

Q: And the GI50 (OVCAR-4)?
A: 3740 nM (inactive)

Q: And the GI50 (A498)?
A: 791 nM (active)

Q: And the GI50 (NCI-H460)?
A: 35.3 nM (active)

Q: And the GI50 (SN12C)?
A: 281 nM (active)

Q: And the GI50 (A549)?
A: 154 nM (active)

Q: And the GI50 (SNB-19)?
A: 245 nM (active)

Q: What about the GI50 (SK-MEL-2) of the same compound?
A: 3110 nM (inactive)

Q: What about the GI50 (UACC-257) of the same compound?
A: 1800 nM (inactive)

Q: What about the GI50 (NCI/ADR-RES) of the same compound?
A: 1450 nM (inactive)

Q: And the GI50 (IGROV-1)?
A: 243 nM (active)

Q: What about the GI50 (MCF7) of the same compound?
A: 47.4 nM (active)

Q: What about the GI50 (RPMI-8226) of the same compound?
A: 175 nM (active)

Q: What about the GI50 (OVCAR-8) of the same compound?
A: 543 nM (active)

Q: And the GI50 (HCT-116)?
A: 318 nM (active)

Q: What about the GI50 (SK-OV-3) of the same compound?
A: 617 nM (active)

Q: What about the GI50 (EKVX) of the same compound?
A: 3680 nM (inactive)

Q: And the GI50 (HL-60)?
A: 154 nM (active)

Q: And the GI50 (T47D)?
A: 522 nM (active)

Q: What about the GI50 (LOX IMVI) of the same compound?
A: 156 nM (active)

Q: What about the GI50 (NCI-H522) of the same compound?
A: 610 nM (active)

Q: What about the GI50 (RXF 393) of the same compound?
A: 2740 nM (inactive)

Q: What about the GI50 (HOP-62) of the same compound?
A: 367 nM (active)

Q: What about the GI50 (SW-620) of the same compound?
A: 495 nM (active)

Q: And the GI50 (SF-268)?
A: 541 nM (active)

Q: What about the GI50 (MDA-MB-231) of the same compound?
A: 1060 nM (active)

Q: What about the GI50 (OVCAR-5) of the same compound?
A: 916 nM (active)

Q: And the GI50 (SK-MEL-28)?
A: 3400 nM (inactive)

Q: What about the GI50 (SK-MEL-5) of the same compound?
A: 408 nM (active)

Q: And the GI50 (SF-295)?
A: 130 nM (active)

Q: What about the GI50 (SF-539) of the same compound?
A: 194 nM (active)

Q: What about the GI50 (SR) of the same compound?
A: 101 nM (active)

Q: And the GI50 (DU-145)?
A: 230 nM (active)

Q: What about the GI50 (SNB-75) of the same compound?
A: 417 nM (active)

Q: And the GI50 (CAKI-1)?
A: 130 nM (active)

Q: What about the GI50 (PC-3) of the same compound?
A: 971 nM (active)

Q: What about the GI50 (MDA-N) of the same compound?
A: 1880 nM (inactive)

Q: And the GI50 (HCT-15)?
A: 358 nM

Q: What about the GI50 (CCRF-CEM) of the same compound?
A: 197 nM (active)

Q: And the GI50 (Malme-3M)?
A: 1140 nM (inactive)

Q: What about the GI50 (HOP-92) of the same compound?
A: 457 nM (active)

Q: What about the GI50 (786-0) of the same compound?
A: 287 nM (active)

Q: What about the GI50 (KM12) of the same compound?
A: 1850 nM (inactive)

Q: And the GI50 (MOLT-4)?
A: < 14.2 nM (active)

Q: And the GI50 (HCC 2998)?
A: 1910 nM (inactive)

Q: And the GI50 (MDA-MB-435)?
A: 2250 nM (inactive)

Q: And the GI50 (TK-10)?
A: 1600 nM (inactive)

Q: And the GI50 (BT-549)?
A: 1040 nM (active)
